Source: patent US20050019438A1, “Hop extracts and use thereof in the production of a medicament having estrogenic properties” (priority 2001, published 2005)

Test system: Ishikawa cell line (Var. I) of human endometrial adenocarcinoma
Assay: Ishikawa cell alkaline phosphatase assay of estrogenic activity
Type: cell-based
Excerpt: The in vitro assay used was developed by Littlefield in 1990 (Endocrinology 1990, 127, p. 2757-2762).
The variant of the cell line used is sensitive to estrogens, to which it responds not through a proliferative activity, but through an activity which stimulates an enzyme, alkaline phosphatase. This assay provides, in a sensitive and specific manner, information on the estrogenic activity since, among steroids, only the estrogens respond to this assay and succeed in stimulating the enzyme activity. The estrogenic activity can also be triggered by non-steroidal substances having a “estrogen-like” effect, such as phytoestrogens. The estrogenic responses obtained below are blocked by the reference anti-estrogen brought into contact, which indicates an estrogen receptor-mediated activity.
The model is an Ishikawa cell line (Var. I) of human endometrial adenocarcinoma (established by Nishida: Acta Obstet Gynaec Jap 1985, 37: 1103-1111).
Specifically, alkaline phosphatase hydrolyzes p-nitrophenol phosphate to p-nitrophenol, which gives a colored reaction.
The assay consists in measuring the absorbance at 405 nm after incubation for 72 h.
Two controls were used: • positive control=17β-estradiol, • negative control=antiestrogen ICI182, 780 from Zeneca. […]

Row | Compound | blocking of the estrogenic responses by the anti-estrogen (reference anti-estrogen brought into contact, indicates estrogen receptor-mediated activity) | estrogenic activity / response (in words) (alkaline phosphatase activation in Ishikawa cells, absorbance at 405 nm after 72 h)
1 | C[C@]12CC[C@@H]3c4ccc(O)cc4C[C@@H](CCCCCCCCC[S+]([O-])CCCC(F)(F)C(F)(F)F)[C@H]3[C@@H]1CC[C@@H]2O (stereo partly drawn) [reference anti-estrogen] | blocked | –
2 | C[C@]12CC[C@@H]3c4ccc(O)cc4CC[C@H]3[C@@H]1CC[C@@H]2O [17β-Estradiol, 17β-estradiol] | – | expected dose-effect relationship
